Assay results from US20130230469A1, “Oral Care Product and Methods of Use and Manufacture Thereof” (COLGATE-PALMOLIVE COMPANY, priority 2010, published 2013).

Test system: bacteria/yeast and mold
Assay: Antimicrobial Preservation Effectiveness Test (micro robustness), double challenge test
Format: cell-based
Settings: for microbial control: preservative in mouthwash formulation, separately or in combination
Method: The Antimicrobial Preservation Effectiveness Test is used to determine the antimicrobial preservation effectiveness of water-based product formulations by means of a double challenge test. Products are developed to withstand microbial challenges introduced by normal consumer use. The test is run on an aged sample (13 weeks, 40° C.). The test uses two pools of microorganisms: bacteria/yeast and mold. The product is challenged at a 1% level at day 0 and at day 7. Reduction of the inoculum is monitored over a 28 day period. The following are the acceptance criteria for mouth wash formulas. • Bacteria and Yeast must show a 99.9% reduction (3 logs) of the bacterial inoculum as determined by plate count on day 7 following each inoculation. No increase after day 7 of the second inoculation and for the remainder of the test within normal variation of the data. • Mold must show a 90.0% reduction (1 log) of the mold inoculum as determined by the plate count on day 14 following the second inoculation (day 21). No increase from day 14 to day 21 of the second inoculation of the test within normal variation of the data.

SMILES	antimicrobial efficacy (amount reduced to 0.001%)	microbial control
Cn1sccc1=O [MIT, methylisothiazolinone]	retaining antimicrobial efficacy	acceptable microbial control
CCCCCCCC(=O)OCC(O)CO (stereo not shown) [Lexgard/gmcy, glycerol monocaprylate]	–	acceptable microbial control
OCc1ccccc1 [Benzyl alcohol, benzyl alcohol]	–	acceptable microbial control
